Earlier results on one molecule are cited in US20250214981A1, “COMPOUND AND APPLICATION THEREOF IN PREPARATION OF MEDICINE FOR TREATING ENTEROVIRUS-RELATED DISEASES” (priority 2022, published 2025).

Data set [1] has as its system human rhinovirus serotypes.
In data set [2] the test system is mammalian cysteine and serine proteases, including cathepsin B, elastase, chymotrypsin, trypsin, thrombin, and calpain.
For data set [3] the following is noted: in vivo.

Consider `CCOC(=O)/C=C/[C@H](C[C@@H]1CCNC1=O)NC(=O)[C@@H](CC(=O)[C@@H](NC(=O)c1cc(C)on1)C(C)C)Cc1ccc(F)cc1` [AG7088], for which the “antiviral activity against a variety of human rhinovirus serotypes” value in data set [1] is listed as “significant antiviral activity”. Besides, in data set [2], the “inhibitory activity against mammalian cysteine and serine proteases” value is recorded as “negligible inhibitory activity”. For the same molecule, the bioavailability result in data set [3] is on record as “low bioavailability”.
